This is an account of results in patent US20100113421A1, “NON-NUCLEOSIDE REVERSE TRANSCRIPTASE INHIBITORS” (priority 2006, published 2010).

The experiment has as its system HIV strain containing the Y181C mutation. Put plainly: Spread assay, Y181C mutant strain. Particulars: Human immunodeficiency virus 1; spread assay, 10% FBS, Y181C mutant strain; read-out: CIC95. Format: cell-based. How it is done: Assays for the inhibition of acute HIV-1 infection of T-lymphoid cells (alternatively referred to herein as the “spread assay”) were conducted in accordance with Vacca, J. P. et al., Proc. Natl. Acad. Sci. USA 1994, 91: 4096. The assays (using 10% FBS) tested for inhibition of wild type HIV-1 and of HIV strains containing the Y181C or K103N mutation. […] (Note that the compound of Example 6 was tested only up to a 833 nM concentration and the CIC95 value was determined to be >833 nM. The compound of Example 78 was not tested in the Y1818C assay.) The compounds of Examples 1 to 119 (including Examples 70A and 70B) had CIC95 values of less than 1000 nanomolar in the assay employing the K103N mutant strain. In an analogous assay employing a mutant strain containing both the K103N and Y181C mutations, the compounds of Examples 70A, 70B and 78-115 had CIC95 values of less than 1000 nanomolar.

Regarding `Cc1c(C(=O)N(C)Cc2ccc3ncccc3c2Cl)[nH]c(C(N)=O)c1S(=O)(=O)c1cc(F)cc(Cl)c1` [Example 52, 4-[(3-chloro-5-fluorophenyl)sulfonyl]-N-[(5-chloro-6-quinolinyl)methyl]-N,3-dimethyl-1H-pyrrole-2,5-dicarboxamide], the IC95 was less than 8 µM.

For `Cc1c(C(=O)N(C)Cc2cc3cccnc3cc2Cl)[nH]c(C(N)=O)c1S(=O)(=O)c1cc(F)cc(Cl)c1` [Example 53, 4-[(3-chloro-5-fluorophenyl)sulfonyl]-N-[(7-chloro-6-quinolinyl)methyl]-N,3-dimethyl-1H-pyrrole-2,5-dicarboxamide], the IC95 is less than 8 µM.

Take `Cc1c(C(=O)N(C)Cc2ccc3ncccc3c2)[nH]c(C(N)=O)c1S(=O)(=O)c1cc(Cl)cc(Cl)c1` [Example 54, 4-[(3,5-dichlorophenyl)sulfonyl]-N,3-dimethyl-N-(6-quinolinylmethyl)-1H-pyrrole-2,5-dicarboxamide]: the IC95 was less than 8 µM.

As for `Cc1c(C(=O)N(C)Cc2ccc3ncccc3c2Cl)[nH]c(C(N)=O)c1S(=O)(=O)c1cc(Cl)cc(Cl)c1` [Example 55, N-[(5-chloro-6-quinolinyl)methyl]-4-[(3,5-dichlorophenyl)sulfonyl]-N,3-dimethyl-1H-pyrrole-2,5-dicarboxamide], the IC95 is less than 8 µM.

Turning to `Cc1c(C(=O)N(C)Cc2cc3cccnc3cc2Cl)[nH]c(C(N)=O)c1S(=O)(=O)c1cc(Cl)cc(Cl)c1` [Example 56, N-[(7-chloro-6-quinolinyl)methyl]-4-[(3,5-dichlorophenyl)sulfonyl]-N,3-dimethyl-1H-pyrrole-2,5-dicarboxamide], the IC95 was less than 8 µM.

As for `Cc1c(C(=O)N(C)Cc2ccc3ncccc3c2)[nH]c(C(N)=O)c1S(=O)(=O)c1cc(Cl)cc(C#N)c1` [Example 57], the IC95 was less than 8 µM.

For the molecule `CC(C)c1c(C(=O)N(C)Cc2ccccc2)[nH]c(C(N)=O)c1S(=O)(=O)c1ccccc1` [Example 58, N-Benzyl-3-isopropyl-N-methyl-4-(phenylsulfonyl)-1H-pyrrole-2,5-dicarboxamide], the IC95 was less than 8 µM.

`CCc1c(C(=O)N(C)Cc2ccc(Cl)cc2Cl)[nH]c(C(N)=O)c1S(=O)(=O)c1ccccc1` [Example 59, N-(2,4-dichlorobenzyl)-3-ethyl-N-methyl-4-(phenylsulfonyl)-1H-pyrrole-2,5-dicarboxamide]: the IC95 is less than 8 µM.

In the case of `CCc1c(C(=O)N(C)Cc2ccc3ncccc3c2)[nH]c(C(N)=O)c1S(=O)(=O)c1ccccc1` [Example 60, 3-ethyl-N-methyl-4-(phenylsulfonyl)-N-(6-quinolinylmethyl)-1H-pyrrole-2,5-dicarboxamide], the IC95 was less than 8 µM.

Consider `CC(C)c1c(C(=O)N(C)Cc2ccccc2F)[nH]c(C(N)=O)c1S(=O)(=O)c1ccccc1` [Example 61, N-(2-fluorobenzyl)-3-isopropyl-N-methyl-4-(phenylsulfonyl)-1H-pyrrole-2,5-dicarboxamide], for which the IC95 was less than 8 µM.

As for `CC(C)c1c(C(=O)N(C)Cc2ccc(Cl)cc2F)[nH]c(C(N)=O)c1S(=O)(=O)c1ccccc1` [Example 62, N-(4-chloro-2-fluorobenzyl)-3-isopropyl-N-methyl-4-(phenylsulfonyl)-1H-pyrrole-2,5-dicarboxamide], the IC95 was less than 8 µM.

For `CC(C)c1c(C(=O)N(C)Cc2ccc(Cl)cc2Cl)[nH]c(C(N)=O)c1S(=O)(=O)c1ccccc1` [Example 63, N-(2,4-dichlorobenzyl)-3-isopropyl-N-methyl-4-(phenylsulfonyl)-1H-pyrrole-2,5-dicarboxamide], the IC95 is less than 8 µM.

As to `CC(C)c1c(C(=O)N(C)Cc2ccc3ncccc3c2)[nH]c(C(N)=O)c1S(=O)(=O)c1ccccc1` [Example 64, 3-isopropyl-N-methyl-4-(phenylsulfonyl)-N-(6-quinolinylmethyl)-1H-pyrrole-2,5-dicarboxamide], the IC95 is less than 8 µM.

Regarding `CCCc1c(C(=O)N(C)Cc2ccc3ncccc3c2)[nH]c(C(N)=O)c1S(=O)(=O)c1ccccc1` [Example 65, N-methyl-4-(phenylsulfonyl)-3-propyl-N-(6-quinolinylmethyl)-1H-pyrrole-2,5-dicarboxamide], the IC95 was less than 8 µM.

Regarding `CCCCc1c(C(=O)N(C)Cc2ccc3ncccc3c2)[nH]c(C(N)=O)c1S(=O)(=O)c1ccccc1` [Example 66, 3-butyl-N-methyl-4-(phenylsulfonyl)-N-(6-quinolinylmethyl)-1H-pyrrole-2,5-dicarboxamide], the IC95 was less than 8 µM.

For the molecule `CCCCc1c(C(=O)N(C)Cc2ccc3ncccc3c2)[nH]c(C(N)=O)c1S(=O)(=O)c1cccc(C)c1` [Example 67, 3-butyl-N-methyl-4-(3-methylphenylsulfonyl)-N-(6-quinolinylmethyl)-1H-pyrrole-2,5-dicarboxamide], the IC95 was less than 8 µM.

With `CCCCc1c(C(=O)N(C)Cc2ccc3ncccc3c2)[nH]c(C(N)=O)c1S(=O)(=O)c1cccc(Cl)c1` [Example 68, 3-butyl-4-[(3-chlorophenyl)sulfonyl]-N-methyl-N-(6-quinolinylmethyl)-1H-pyrrole-2,5-dicarboxamide], the IC95 was less than 8 µM.

With `CCCCc1c(C(=O)N(C)Cc2ccc3ncccc3c2)[nH]c(C(N)=O)c1S(=O)(=O)c1cc(C)cc(C)c1` [Example 69, 3-butyl-4-[(3,5-dimethylphenyl)sulfonyl]-N-methyl-N-(6-quinolinylmethyl)-1H-pyrrole-2,5-dicarboxamide], the IC95 is less than 8 µM.

As for `CCCCc1c(C(=O)N(C)Cc2ccc3ncccc3c2)[nH]c(C(N)=O)c1S(=O)(=O)c1cc(Cl)cc(Cl)c1` [Example 70, 3-butyl-4-[(3,5-dichlorophenyl)sulfonyl]-N-methyl-N-(6-quinolinylmethyl)-1H-pyrrole-2,5-dicarboxamide], the IC95 was less than 8 µM.

As for `Cc1c(C(=O)N(C)Cc2ccc(Cl)cc2Cl)[nH]c(C(=O)NCc2n[nH]c3ccccc23)c1S(=O)(=O)c1ccccc1` [Example 71, N-(2,4-Dichlorobenzyl)-N′-(1H-indazol-3-ylmethyl)-N,3-dimethyl-4-(phenylsulfonyl)-1H-pyrrole-2,5-dicarboxamide], the IC95 is less than 8 µM.

As for `CNC(=O)c1[nH]c(C(=O)N(C)Cc2ccc(Cl)cc2Cl)c(C)c1S(=O)(=O)c1ccccc1` [Example 72, N-(2,4-dichlorobenzyl)-N,N′,3-trimethyl-4-(phenylsulfonyl)-1H-pyrrole-2,5-dicarboxamide], the IC95 was less than 8 µM.

As for `Cc1cnccc1CNC(=O)c1[nH]c(C(=O)N(C)Cc2ccc(Cl)cc2Cl)c(C)c1S(=O)(=O)c1ccccc1` [Example 73, N-(2,4-dichlorobenzyl)-N,3-dimethyl-N′-[(3-methyl-4-pyridinyl)methyl]-4-(phenylsulfonyl)-1H-pyrrole-2,5-dicarboxamide], the IC95 is less than 8 µM.

As to `Cc1c(C(=O)N(C)Cc2ccc(Cl)cc2Cl)[nH]c(C(=O)NCc2ccccn2)c1S(=O)(=O)c1ccccc1` [Example 74, N-(2,4-dichlorobenzyl)-N,3-dimethyl-4-(phenylsulfonyl)-N′-(2-pyridinylmethyl)-1H-pyrrole-2,5-dicarboxamide], the IC95 is less than 8 µM.

Regarding `Cc1c(C(=O)N(C)Cc2ccc(Cl)cc2Cl)[nH]c(C(=O)NCc2cccnc2)c1S(=O)(=O)c1ccccc1` [Example 75, N-(2,4-dichlorobenzyl)-N,3-dimethyl-4-(phenylsulfonyl)-N′-(3-pyridinylmethyl)-1H-pyrrole-2,5-dicarboxamide], the IC95 is less than 8 µM.

In the case of `Cc1c(C(=O)N(C)Cc2ccc(Cl)cc2Cl)[nH]c(C(=O)NCc2nccs2)c1S(=O)(=O)c1ccccc1` [Example 76, N-(2,4-dichlorobenzyl)-N,3-dimethyl-4-(phenylsulfonyl)-N′-(1,3-thiazol-2-ylmethyl)-1H-pyrrole-2,5-dicarboxamide], the IC95 was less than 8 µM.

Regarding `Cc1c(C(=O)N(C)Cc2ccc(Cl)cc2Cl)[nH]c(C(=O)NCc2c(F)cccc2Cl)c1S(=O)(=O)c1ccccc1` [Example 77, N′-(2-chloro-6-fluorobenzyl)-N-(2,4-dichlorobenzyl)-N,3-dimethyl-4-(phenylsulfonyl)-1H-pyrrole-2,5-dicarboxamide], the IC95 is less than 8 µM.

Take `Cc1c(C(=O)N(C)Cc2ccc(Cl)cc2Cl)[nH]c(C(N)=O)c1S(=O)(=O)N1CCCC1` [Example 116, N-(2,4-dichlorobenzyl)-N,3-dimethyl-4-(1-pyrrolidinylsulfonyl)-1H-pyrrole-2,5-dicarboxamide]: the IC95 was less than 8 µM.

In the case of `Cc1c(C(=O)N(C)Cc2ccccc2Cl)[nH]c(C(=O)NCc2ccccn2)c1S(=O)(=O)N1CCCC1` [Example 117, N-(2-chlorobenzyl)-N,3-dimethyl-N′-(2-pyridinylmethyl)-4-(1-pyrrolidinylsulfonyl)-1H-pyrrole-2,5-dicarboxamide], the IC95 is less than 8 µM.

`Cc1c(C(=O)N(C)Cc2ccc(Cl)cc2Cl)[nH]c(C(N)=O)c1S(=O)(=O)N1CCCCC1` [Example 118, N-(2,4-dichlorobenzyl)-N,3-dimethyl-4-(1-piperidinylsulfonyl)-1H-pyrrole-2,5-dicarboxamide]: the IC95 was less than 8 µM.

Regarding `Cc1c(C(=O)N(C)Cc2ccccc2Cl)[nH]c(C(N)=O)c1S(=O)(=O)N1CCCCC1` [Example 119, N-(2-chlorobenzyl)-N,3-dimethyl-4-(1-piperidinylsulfonyl)-1H-pyrrole-2,5-dicarboxamide], the IC95 was less than 8 µM.
